For 3 molecules, Activity results are on record in ChEMBL document CHEMBL2074460, “P-glycoprotein-mediated transport of digitoxin, alpha-methyldigoxin and beta-acetyldigoxin” (Naunyn Schmiedebergs Arch Pharmacol, 2001).

The data set deals with ATP-dependent translocase ABCB1 (Homo sapiens, UniProt P08183). The experiment in a line: TP_TRANSPORTER: transepithelial transport (basal to apical) in MDR1-expressing LLC-PK1 cells. Conditions: pig. The class given is functional, cell-based.
Sequence of ATP-dependent translocase ABCB1 (P08183 whole entry): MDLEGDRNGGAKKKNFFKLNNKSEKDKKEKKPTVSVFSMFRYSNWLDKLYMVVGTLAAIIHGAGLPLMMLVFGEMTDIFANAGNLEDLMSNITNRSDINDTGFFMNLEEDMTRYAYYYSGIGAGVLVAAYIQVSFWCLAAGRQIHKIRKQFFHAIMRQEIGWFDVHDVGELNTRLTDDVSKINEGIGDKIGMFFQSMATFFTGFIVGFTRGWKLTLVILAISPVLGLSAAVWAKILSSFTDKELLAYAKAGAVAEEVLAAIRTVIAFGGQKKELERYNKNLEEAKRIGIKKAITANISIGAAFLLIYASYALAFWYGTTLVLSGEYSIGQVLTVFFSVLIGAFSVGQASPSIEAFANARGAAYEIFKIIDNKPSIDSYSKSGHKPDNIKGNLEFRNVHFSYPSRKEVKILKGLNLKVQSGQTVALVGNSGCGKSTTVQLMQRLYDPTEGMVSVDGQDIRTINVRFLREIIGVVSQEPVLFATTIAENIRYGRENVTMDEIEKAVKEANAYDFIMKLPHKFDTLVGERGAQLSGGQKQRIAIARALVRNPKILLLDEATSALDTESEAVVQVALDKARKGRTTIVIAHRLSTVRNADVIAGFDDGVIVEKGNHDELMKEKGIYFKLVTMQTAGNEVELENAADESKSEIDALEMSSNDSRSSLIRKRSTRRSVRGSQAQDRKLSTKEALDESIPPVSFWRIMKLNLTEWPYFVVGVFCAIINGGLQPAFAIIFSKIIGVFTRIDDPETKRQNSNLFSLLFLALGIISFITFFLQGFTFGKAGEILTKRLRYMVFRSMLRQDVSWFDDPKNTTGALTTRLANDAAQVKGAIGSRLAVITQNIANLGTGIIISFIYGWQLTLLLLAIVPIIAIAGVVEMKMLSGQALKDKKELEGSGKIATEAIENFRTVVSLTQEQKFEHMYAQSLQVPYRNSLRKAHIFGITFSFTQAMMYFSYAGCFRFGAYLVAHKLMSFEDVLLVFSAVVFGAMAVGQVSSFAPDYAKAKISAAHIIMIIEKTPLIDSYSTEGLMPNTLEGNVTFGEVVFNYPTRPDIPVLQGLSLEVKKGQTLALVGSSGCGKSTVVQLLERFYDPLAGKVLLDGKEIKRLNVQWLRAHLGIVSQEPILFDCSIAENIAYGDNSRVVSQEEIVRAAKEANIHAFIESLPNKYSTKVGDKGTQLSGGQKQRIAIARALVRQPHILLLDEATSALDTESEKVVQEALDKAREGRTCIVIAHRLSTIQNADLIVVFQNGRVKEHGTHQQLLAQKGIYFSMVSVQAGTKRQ

On to `C[C@H]1O[C@@H](O[C@H]2[C@@H](O)C[C@H](O[C@H]3[C@@H](O)C[C@H](O[C@H]4CC[C@@]5(C)[C@H](CC[C@@H]6[C@@H]5CC[C@]5(C)[C@@H](C7=CC(=O)OC7)CC[C@]65O)C4)O[C@@H]3C)O[C@@H]2C)C[C@H](O)[C@@H]1O` [DIGITOXIN], for which the Activity entry was “substrate [+]”.
With `O=C(O)CCC(=O)C(=O)O` [ALPHA-KETOGLUTARIC ACID], the Activity entry is “substrate [+]”.
On to `CC(=O)O[C@H]1C[C@H](O[C@H]2[C@@H](O)C[C@H](O[C@H]3[C@@H](O)C[C@H](O[C@H]4CC[C@@]5(C)[C@H](CC[C@@H]6[C@@H]5C[C@@H](O)[C@]5(C)[C@@H](C7=CC(=O)OC7)CC[C@]65O)C4)O[C@@H]3C)O[C@@H]2C)O[C@H](C)[C@H]1O` [ACETYLDIGOXIN], for which the Activity result is “substrate [+]”.
